From patent publication US20050159427A1, “N-acylsulfonamide apoptosis promoters” (priority 2003, published 2005)

Legend:
Assay type in all cases: cell-based
IGROV-1 = assay: Tumor cell viability (TABLE 1); details: Homo sapiens, read-out: EC50 (50% reduction in cell viability); IGROV-1 (Ovarian); serum-free conditions, 48 hour treatment; mean ± SEM
BT-549 = assay: Tumor cell viability (TABLE 1); details: Homo sapiens, read-out: EC50 (50% reduction in cell viability); BT-549 (Breast); serum-free conditions, 48 hour treatment; mean ± SEM
OVCAR-4 = assay: Tumor cell viability (TABLE 1); details: Homo sapiens, read-out: EC50 (50% reduction in cell viability); OVCAR-4 (Ovarian); serum-free conditions, 48 hour treatment; mean ± SEM
[1] = tested on: A549 human non-small cell lung carcinoma cells; assay: Paclitaxel combination on A549 cells; details: A549 cells

CN(C)CC[C@H](CSc1ccccc1)Nc1ccc(S(=O)(=O)NC(=O)c2ccc(N3CCN(Cc4ccccc4-c4ccc(Cl)cc4)CC3)cc2)cc1[N+](=O)[O-] [EXAMPLE 2, N-(4-(4-((4′-chloro(1,1′-biphenyl)-2-yl)methyl)piperazin-1-yl)benzoyl)-4-(((1R)-3-(dimethylamino)-1-((phenylsulfanyl)methyl)propyl)amino)-3-nitrobenzenesulfonamide]
EC50 (IGROV-1): 1.7 ± 0.6 µM
EC50 (BT-549): 6.5 ± 2.3 µM
EC50 (OVCAR-4): 22 ± 3 µM
increase in efficacy of paclitaxel when administered with the compound [1]: about 4.4 fold
